The target of test [1] is Metabotropic glutamate receptor 6 (Homo sapiens) (UniProt O15303). Briefly: Agonist activity at mGluR6 expressed in CHO cells assessed as decrease in cAMP accumulation at 10 uM. It counts as functional, cell-based. Also noted: scale not given: the % may be the effect or the level left.
The target of test [2] is Metabotropic glutamate receptor 2 (Homo sapiens) (UniProt Q14416). Briefly: Agonist activity at mGluR2 expressed in CHO cells assessed as decrease in cAMP accumulation at 10 uM. It counts as functional, cell-based. Also noted: scale not given: the % may be the effect or the level left.
The target in test [3] is Sodium-dependent serotonin transporter (Homo sapiens, UniProt P31645). It counts as cell membranes.
The target in test [4] is Metabotropic glutamate receptor 2 (Homo sapiens) (UniProt Q14416). Briefly: Antagonist activity at mGluR2 expressed in CHO cells assessed as inhibition of forskolin stimulated cAMP accumulation at 10 uM. It counts as functional, cell-based.
In test [5] the target is T1, 5-hydroxytryptamine receptor 1A (Rattus norvegicus, UniProt P19327).
T1 sequence (P19327 whole entry): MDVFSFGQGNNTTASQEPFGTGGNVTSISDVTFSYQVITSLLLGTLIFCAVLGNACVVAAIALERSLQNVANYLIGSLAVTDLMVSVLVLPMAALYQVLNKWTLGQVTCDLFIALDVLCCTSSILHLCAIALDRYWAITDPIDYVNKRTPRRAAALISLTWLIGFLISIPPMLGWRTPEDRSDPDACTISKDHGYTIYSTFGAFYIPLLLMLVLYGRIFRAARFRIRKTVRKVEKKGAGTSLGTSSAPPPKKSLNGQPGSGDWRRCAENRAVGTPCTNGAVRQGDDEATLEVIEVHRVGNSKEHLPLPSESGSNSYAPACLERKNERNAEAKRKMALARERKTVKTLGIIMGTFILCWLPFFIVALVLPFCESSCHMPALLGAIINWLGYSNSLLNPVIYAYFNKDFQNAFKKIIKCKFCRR
Briefly: Displacement of [3H]8-OH-DPAT from 5HT1A receptor in rat cortex membrane. In kind it is cell membranes.

Test [6] addresses Metabotropic glutamate receptor 2 (Homo sapiens) (UniProt Q14416). Briefly: Antagonist activity at mGluR2 expressed in CHO cells assessed as inhibition of glutamate-induced cAMP accumulation at 10 uM. It counts as functional, cell-based.
Test [7] concerns the target Metabotropic glutamate receptor 6 (Homo sapiens) (UniProt O15303). Briefly: Antagonist activity at mGluR6 expressed in CHO cells assessed as inhibition of AP4-induced cAMP accumulation at 10 uM. In kind it is functional, cell-based.
For test [8] the target is unchanged. Briefly: Antagonist activity at mGluR6 expressed in CHO cells assessed as inhibition of forskolin stimulated cAMP accumulation at 10 uM. In kind it is functional, cell-based.
The target in test [9] is 5-hydroxytryptamine receptor 2A (Rattus norvegicus, UniProt P14842). Put plainly: Displacement of [3H]ketanserin from 5HT2A receptor in rat cortex membrane. It counts as cell membranes.
Test [10] concerns the target Metabotropic glutamate receptor 1 (Homo sapiens) (UniProt Q13255). Put plainly: Agonist activity at mGluR1 expressed in CHO cells assessed as stimulation of phosphatidyl inositol hydrolysis at 10 uM. In kind it is functional, cell-based.
Test [11] has the same target. Briefly: Antagonist activity at mGluR1 expressed in CHO cells assessed as inhibition of glutamate stimulated phosphatidyl inositol hydrolysis at 10 uM. In kind it is functional, cell-based.

Activity calls are given as the source filed them. The rule behind the calls is not given here.

Metabotropic glutamate receptor 1 (Homo sapiens), sequence (Q13255 19-1194 limits assumed): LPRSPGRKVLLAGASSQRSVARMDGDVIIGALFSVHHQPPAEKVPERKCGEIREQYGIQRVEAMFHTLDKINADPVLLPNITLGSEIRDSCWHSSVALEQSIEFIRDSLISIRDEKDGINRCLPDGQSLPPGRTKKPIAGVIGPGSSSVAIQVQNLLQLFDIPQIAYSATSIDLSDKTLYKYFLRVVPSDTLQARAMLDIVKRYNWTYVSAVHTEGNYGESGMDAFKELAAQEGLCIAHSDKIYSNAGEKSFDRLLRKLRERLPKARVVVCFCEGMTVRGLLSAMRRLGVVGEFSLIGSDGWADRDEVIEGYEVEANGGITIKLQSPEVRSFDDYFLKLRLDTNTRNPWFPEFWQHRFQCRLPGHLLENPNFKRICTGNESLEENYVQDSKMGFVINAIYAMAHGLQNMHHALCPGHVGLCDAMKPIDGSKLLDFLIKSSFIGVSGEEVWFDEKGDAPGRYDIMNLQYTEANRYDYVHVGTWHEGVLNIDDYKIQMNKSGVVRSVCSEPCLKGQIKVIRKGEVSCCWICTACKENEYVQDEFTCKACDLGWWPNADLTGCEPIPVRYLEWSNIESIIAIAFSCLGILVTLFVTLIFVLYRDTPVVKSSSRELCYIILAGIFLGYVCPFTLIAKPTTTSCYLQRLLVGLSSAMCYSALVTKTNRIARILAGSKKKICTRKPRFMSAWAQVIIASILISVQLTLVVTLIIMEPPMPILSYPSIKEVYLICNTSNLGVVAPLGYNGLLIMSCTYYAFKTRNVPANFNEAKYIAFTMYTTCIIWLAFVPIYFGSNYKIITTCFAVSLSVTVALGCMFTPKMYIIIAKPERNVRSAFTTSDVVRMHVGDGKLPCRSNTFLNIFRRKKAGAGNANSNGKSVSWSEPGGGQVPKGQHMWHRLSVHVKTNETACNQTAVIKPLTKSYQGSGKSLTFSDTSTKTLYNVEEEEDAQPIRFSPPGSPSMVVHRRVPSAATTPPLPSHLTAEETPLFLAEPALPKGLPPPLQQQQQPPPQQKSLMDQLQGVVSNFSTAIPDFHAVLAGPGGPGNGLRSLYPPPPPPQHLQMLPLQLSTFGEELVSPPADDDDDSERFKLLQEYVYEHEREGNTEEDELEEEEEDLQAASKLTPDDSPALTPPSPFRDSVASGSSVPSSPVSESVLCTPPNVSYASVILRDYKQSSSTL
Metabotropic glutamate receptor 6 (Homo sapiens), sequence (O15303 whole entry): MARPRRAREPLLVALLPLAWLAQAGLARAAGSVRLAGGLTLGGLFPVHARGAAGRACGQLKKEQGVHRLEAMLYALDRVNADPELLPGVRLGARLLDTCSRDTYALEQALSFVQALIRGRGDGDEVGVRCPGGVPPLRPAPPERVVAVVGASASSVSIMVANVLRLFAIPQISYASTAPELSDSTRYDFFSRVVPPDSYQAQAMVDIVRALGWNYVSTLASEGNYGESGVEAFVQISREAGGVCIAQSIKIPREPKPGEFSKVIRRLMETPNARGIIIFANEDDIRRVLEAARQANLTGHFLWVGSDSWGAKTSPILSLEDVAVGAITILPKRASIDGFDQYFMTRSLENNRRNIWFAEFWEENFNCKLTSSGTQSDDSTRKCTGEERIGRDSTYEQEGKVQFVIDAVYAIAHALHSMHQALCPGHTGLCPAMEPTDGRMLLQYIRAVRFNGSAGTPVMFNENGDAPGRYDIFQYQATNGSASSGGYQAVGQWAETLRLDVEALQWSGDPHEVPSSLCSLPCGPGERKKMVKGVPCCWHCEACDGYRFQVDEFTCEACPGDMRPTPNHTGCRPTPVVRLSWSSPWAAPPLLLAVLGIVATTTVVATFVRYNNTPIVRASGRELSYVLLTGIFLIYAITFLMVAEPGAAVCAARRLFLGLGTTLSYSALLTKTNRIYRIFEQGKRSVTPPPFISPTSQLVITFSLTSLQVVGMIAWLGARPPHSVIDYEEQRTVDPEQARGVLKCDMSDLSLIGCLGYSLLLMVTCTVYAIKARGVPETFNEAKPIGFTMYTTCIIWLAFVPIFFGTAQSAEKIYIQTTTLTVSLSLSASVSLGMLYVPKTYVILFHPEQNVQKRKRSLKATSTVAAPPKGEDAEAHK
5-hydroxytryptamine receptor 2A, sequence (P14842 whole entry): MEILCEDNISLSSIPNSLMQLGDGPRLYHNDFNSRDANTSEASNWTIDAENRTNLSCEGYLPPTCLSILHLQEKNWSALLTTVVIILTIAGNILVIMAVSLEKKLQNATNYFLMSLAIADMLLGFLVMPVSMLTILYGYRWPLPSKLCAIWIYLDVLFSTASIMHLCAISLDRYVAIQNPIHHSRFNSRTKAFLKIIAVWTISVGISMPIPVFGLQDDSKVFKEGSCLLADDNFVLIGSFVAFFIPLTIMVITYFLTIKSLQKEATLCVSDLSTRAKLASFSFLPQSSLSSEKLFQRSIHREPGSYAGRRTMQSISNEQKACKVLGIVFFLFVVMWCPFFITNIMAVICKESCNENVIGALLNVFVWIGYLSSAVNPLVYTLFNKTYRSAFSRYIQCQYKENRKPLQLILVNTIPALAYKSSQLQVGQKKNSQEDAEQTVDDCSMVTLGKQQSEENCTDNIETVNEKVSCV
Metabotropic glutamate receptor 2 (Homo sapiens), sequence (Q14416 19-872 limits assumed): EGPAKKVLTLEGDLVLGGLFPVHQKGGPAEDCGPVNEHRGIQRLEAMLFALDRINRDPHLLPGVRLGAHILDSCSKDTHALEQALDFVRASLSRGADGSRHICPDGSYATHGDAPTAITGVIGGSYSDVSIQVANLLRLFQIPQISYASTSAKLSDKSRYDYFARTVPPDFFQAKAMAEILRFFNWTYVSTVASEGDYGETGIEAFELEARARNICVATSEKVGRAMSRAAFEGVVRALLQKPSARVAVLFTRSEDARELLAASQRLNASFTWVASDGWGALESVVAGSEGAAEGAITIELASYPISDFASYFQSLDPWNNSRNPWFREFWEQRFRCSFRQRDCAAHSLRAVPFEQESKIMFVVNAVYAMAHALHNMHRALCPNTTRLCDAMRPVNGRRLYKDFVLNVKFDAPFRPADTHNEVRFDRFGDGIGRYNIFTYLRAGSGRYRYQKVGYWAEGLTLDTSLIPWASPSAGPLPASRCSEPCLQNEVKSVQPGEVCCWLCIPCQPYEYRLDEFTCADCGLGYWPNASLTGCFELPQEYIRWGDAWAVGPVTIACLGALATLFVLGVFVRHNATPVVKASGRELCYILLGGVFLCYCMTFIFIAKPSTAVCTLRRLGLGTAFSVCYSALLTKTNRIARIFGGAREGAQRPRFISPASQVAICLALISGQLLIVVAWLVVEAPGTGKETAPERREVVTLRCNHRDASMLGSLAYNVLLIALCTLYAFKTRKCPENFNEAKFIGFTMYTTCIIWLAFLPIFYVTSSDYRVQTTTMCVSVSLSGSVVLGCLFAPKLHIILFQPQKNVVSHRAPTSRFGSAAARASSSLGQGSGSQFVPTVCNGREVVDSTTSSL
Sodium-dependent serotonin transporter, sequence (P31645 whole entry): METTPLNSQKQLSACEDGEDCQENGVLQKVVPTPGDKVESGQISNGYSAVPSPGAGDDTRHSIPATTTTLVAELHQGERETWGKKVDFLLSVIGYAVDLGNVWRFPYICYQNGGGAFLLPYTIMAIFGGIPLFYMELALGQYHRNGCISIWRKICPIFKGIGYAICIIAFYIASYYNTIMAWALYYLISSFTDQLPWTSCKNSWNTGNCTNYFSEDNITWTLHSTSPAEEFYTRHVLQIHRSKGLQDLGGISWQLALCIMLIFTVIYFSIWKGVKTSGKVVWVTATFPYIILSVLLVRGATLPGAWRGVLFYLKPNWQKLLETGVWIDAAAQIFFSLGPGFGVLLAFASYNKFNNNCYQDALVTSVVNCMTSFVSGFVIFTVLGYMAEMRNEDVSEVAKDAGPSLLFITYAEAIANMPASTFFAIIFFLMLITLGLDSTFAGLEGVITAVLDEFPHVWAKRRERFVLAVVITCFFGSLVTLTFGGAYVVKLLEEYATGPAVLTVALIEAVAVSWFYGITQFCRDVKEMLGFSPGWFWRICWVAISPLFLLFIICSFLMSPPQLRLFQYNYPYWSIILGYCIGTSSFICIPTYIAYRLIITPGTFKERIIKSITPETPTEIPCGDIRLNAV

Consider `N[C@]1(C(=O)O)C[C@@H](C(=O)O)C[C@H]1C(=O)O`, for which the result in test [1], in test [2], in test [4], in test [6], in test [7] and in [8] was inactive. In addition, the outcome in test [10] and in test [11] was inactive. In addition, the Ki in test [3] was 10 µM; in test [5], > 50 µM; in test [9], > 50 µM.

Turning to `N[C@@]1(C(=O)O)C[C@H](C(=O)O)C[C@@H]1C(=O)O`, the outcome in [1], in test [2], in test [4], in test [6], in test [7] and in test [8] was inactive. Also, the outcome in [10] and in test [11] was inactive. For the same compound, the Ki in test [3], in [5] and in test [9] was > 50 µM each time.

Turning to `N[C@@]1(C(=O)O)C[C@@H](C(=O)O)C[C@H]1C(=O)O`, the Activity in test [1] and in [2] was 30% each time. For the same compound, the Ki in test [3], in test [5] and in test [9] was > 50 µM throughout. Also, the outcome in test [6], in test [7], in test [10] and in test [11] was inactive.

Consider `N[C@]1(C(=O)O)C[C@H](C(=O)O)C[C@@H]1C(=O)O`, for which the result in [1], in test [2], in test [4], in [6], in [7] and in [8] was inactive. Besides, the result in [10] and in [11] was inactive. The Ki in [3], in [5] and in [9] was > 50 µM throughout.
